# Assay results published in patent US10322177B2, “Activation of immune-related signaling pathways in cells via optofection” (Nant Holdings IP, LLC, priority 2015, dated 2019).
# Tests used:
# Assay type in all cases: cell-based, murine
# RAW-Lucia target cells [1] = assay: Relative luciferase activity of RAW-Lucia cells under treatment configurations (FIG. 4)
# Protocol: (§1) FIG. 4 provides further experimental evidence with respect to the efficiency of cargo delivery to the specific target cells. The two charts show the relative luciferase activity of RAW-Lucia target cells four hours after treatment and 24 hours after treatment under different treatment configurations.
# Treatment configuration 1 represents a cell population having no treatment where no nanoparticles and no laser are introduced to the RAW-Lucia cell population.
# Treatment configuration 2 represents a cell population treated with CD14 ligand coated gold nanoparticles and a 10 uM cGAMP solution.
# Treatment configuration 3 is similar to treatment configuration 2 with the exception that a 1 uM cGAMP solution was introduced to the cell population rather than a 10 uM cGAMP solution.
# Treatment configuration 4 includes treating the target cells with just nanoparticles coated with CD14 ligand followed by application of laser stimulation.
# Treatment configuration 5 is similar to Treatment 4, although lacking laser stimulation.
# Treatment configuration 6 includes treating the cell population with just a 10 uM cGAMP solution without nanoparticles or application of laser stimulation.
# RAW-Lucia ISG cells = assay: RAW-Lucia ISG luciferase reporter, gold nanoparticle optofection of cGAMP (photomicrographs, FIGS. 2A-2C)
# From the text: FIGS. 2A-2C illustrate experimental evidence indicating the validity of the disclosed techniques though the use of RAW-Lucia® ISG cells that express luciferase when a Type I IFN response pathway is activated (see FIG. 3) by a CDN.
# FIG. 2A represents an experiment where gold nanoparticles lacking target cell ligands (here ligand for […]) and cGAMP cargo material are introduced to the cell population. No electro-magnetic stimulation is applied.
# FIG. 2B represents an experiment where gold nanoparticles lacking target cell ligands (ligand for CD14) and cGAMP cargo material are introduced to the cell population. In this experiment, the nanoparticles were exposed to 3 mJ pulsed laser. […] The luciferase expression in FIG. 2B is considered to be present in response to random proximity of the gold nanoparticles to cells when the gold nanoparticles are excited by the laser.
# FIG. 2C represents an experiment where gold nanoparticles having a CD14 ligand and cGAMP cargo material are both introduced to the cell population. In this case, the nanoparticles attach to the target cells.
# The immune response induced in the experiments shown in FIGS. 2A-2C is evidenced by production of luciferase in specifically targeted cells. A mentioned previously, the specifically target cells selected for the experiments were RAW-Lucia™ ISG cells commercially available from InvivoGen® (see URL www.invivogen.com/raw-lucia-isg). The RAW-Lucia cells express luciferase gene (Lucia) through various IFN-stimulated response elements (ISRE) as indicated in FIG. 3. Thus, when an IFN response is stimulated, the cells express the luciferase gene. Of specific note, when CDNs are introduced to the RAW-Lucia cells, the IFN response is activated causing expression of the luciferase gene. Therefore, FIG. 2C clearly provides evidence via substantial luciferase expression that the disclosed technique of causing a cell to uptake CDNs (e.g., cGAMP, etc.) via externally generated poration is capable of inducing an immune response. Such result is not necessarily predictable as laser excitation and concomitant cavitation events may damage or interfere with signal transduction events.
# RAW-Lucia target cells [2] = assay: Relative luciferase activity of RAW-Lucia cells after BLAST delivery (FIG. 5); details: Treatment 2: BLAST, 2.5 uM cGAMP solution; 4 hour and 24 hour
# Protocol: as §1, with “FIG. 5” for “FIG. 4”, “target cells with respect to using a biophotonic laser-assisted surgery tool (BLAST, as described in Nature Methods 12, 439-444 (2015)).” for “target cells.”, “charts of FIG. 5” for “charts”, “under three” for “under”
# Treatment configuration 1 represents a control group where the cell population is not treated in order to provide a base line result.
# Treatment configuration 2 leverages BLAST where the cell population is bathed in a 2.5 uM cGAMP solution.
# Treatment configuration 3 includes co-incubation of the cell populations with a 2.5 uM cGAMP solution. However, the cell population is not exposed to laser stimulation via BLAST.
# It should be appreciated that FIG. 5 illustrates the efficacy of a method of inducing an interferon response in specific target cells, including target cells within a heterogeneous cell population. Free cyclic di-nucleotide cargo (i.e., cGAMP in the scenario of FIG. 5) was introduced to the cell population such that the cGAMP remained external to the target cells in a 2.5 uM solution. […]
# [3] = gold nanoparticles having a CD14 ligand plus cGAMP, 2 mJ pulsed laser (FIG. 2C)
smiles,measurement,setting,value
Nc1nc2c(ncn2[C@@H]2O[C@@H]3COP(=O)(O)O[C@H]4[C@@H](O)[C@H](n5cnc6c(N)ncnc65)O[C@@H]4COP(=O)(O)O[C@@H]2[C@@H]3O)c(=O)[nH]1 [cGAMP],relative luciferase activity,"RAW-Lucia target cells [1]; Treatment 2: CD14 ligand coated gold nanoparticles, 10 uM cGAMP solution, laser, 4 h and 24 h after treatment",significant luciferase activity
same,relative luciferase activity,"RAW-Lucia target cells [1]; Treatment 3: CD14 ligand coated gold nanoparticles, 1 uM cGAMP solution, laser, 4 h and 24 h after treatment",fairly similar to Treatment 2
same,relative luciferase activity,"RAW-Lucia target cells [1]; Treatment 6: 10 uM cGAMP solution only, no nanoparticles, no laser",reduced level of luciferase activity
same,cell viability,RAW-Lucia ISG cells; [3],substantially all cells retained viability
same,luciferase expression,RAW-Lucia ISG cells; [3],nearly all cells express luciferase
same,luciferase expression,"RAW-Lucia ISG cells; gold nanoparticles lacking target cell ligands plus cGAMP, 3 mJ pulsed laser (FIG. 2B)",some cells express luciferase
same,luciferase expression,"RAW-Lucia ISG cells; gold nanoparticles lacking target cell ligands plus cGAMP, no electro-magnetic stimulation (FIG. 2A)",very little or negligible luciferase expression
same,relative luciferase activity,RAW-Lucia target cells [2],significant luciferase activity
